Consider 4 molecules from PubChem BioAssay AID1259407 (Chemical Carcinogenesis Research Information System (CCRIS), 2018).

The source made the active and inactive calls. No rule for the calls is given here.

The series relates to CCRIS mutagenicity, Ames/micronucleus/aberration tests. In words: CCRIS mutagenicity studies.
[1] abbreviates: Test System: AMES SALMONELLA TYPHIMURIUM, Strain/Indicator: TA100, Metabolic Activation: NONE, Method: STANDARD PLATE.

With `CC(Br)C(=O)N(C)Cc1ccccc1` (stereo not drawn), the mutagenic call was “inactive; negative” (Test System: AMES SALMONELLA TYPHIMURIUM, Strain/Indicator: TA100, Metabolic Activation: MOUSE, LIVER, S-9, AROCLOR 1254, Method: STANDARD PLATE) and “inactive; negative” under setting [1].

For `C=C1C[C@@]23CC[C@H]4[C@@](C)(CCC[C@@]4(C)C(=O)O)[C@@H]2CC[C@]1(O[C@@H]1O[C@H](CO)[C@@H](O)[C@H](O)[C@H]1O)C3`, the mutagenic call (Test System: AMES SALMONELLA TYPHIMURIUM, Strain/Indicator: TM677, Metabolic Activation: RAT, LIVER, S-9, AROCLOR 1254, Method: PREINCUBATION) is “active; positive”.

For `C=CC(=O)NCO`, the mutagenic call (Test System: AMES SALMONELLA TYPHIMURIUM, Strain/Indicator: TA97, Metabolic Activation: HAMSTER, LIVER, S-9, AROCLOR 1254 (10%), Method: PREINCUBATION) is “inactive; negative”; the mutagenic call (Test System: AMES SALMONELLA TYPHIMURIUM, Strain/Indicator: TA97, Metabolic Activation: HAMSTER, LIVER, S-9, AROCLOR 1254 (10 OR 30%), Method: PREINCUBATION) was “inactive; negative”; the mutagenic call (Test System: AMES SALMONELLA TYPHIMURIUM, Strain/Indicator: TA97, Metabolic Activation: HAMSTER, LIVER, S-9, AROCLOR 1254 (30%), Method: PREINCUBATION) is “inactive; negative”; the mutagenic call (Test System: AMES SALMONELLA TYPHIMURIUM, Strain/Indicator: TA97, Metabolic Activation: NONE, Method: PREINCUBATION) was “inactive; negative”; the mutagenic call (Test System: AMES SALMONELLA TYPHIMURIUM, Strain/Indicator: TA97, Metabolic Activation: RAT, LIVER, S-9, AROCLOR 1254 (10% OR 30%), Method: PREINCUBATION) is “inactive; negative”; the mutagenic call (Test System: AMES SALMONELLA TYPHIMURIUM, Strain/Indicator: TA97, Metabolic Activation: RAT, LIVER, S-9, AROCLOR 1254 (10 OR 30%), Method: PREINCUBATION) is “inactive; negative”. The mutagenic call is “inactive; negative” (Test System: AMES SALMONELLA TYPHIMURIUM, Strain/Indicator: TA98, Metabolic Activation: HAMSTER, LIVER, S-9, AROCLOR 1254 (10% OR 30%), Method: PREINCUBATION); “inactive; negative” (Test System: AMES SALMONELLA TYPHIMURIUM, Strain/Indicator: TA98, Metabolic Activation: HAMSTER, LIVER, S-9, AROCLOR 1254 (10 OR 30%), Method: PREINCUBATION); “inactive; negative” (Test System: AMES SALMONELLA TYPHIMURIUM, Strain/Indicator: TA98, Metabolic Activation: NONE, Method: PREINCUBATION); “inactive; negative” (Test System: AMES SALMONELLA TYPHIMURIUM, Strain/Indicator: TA98, Metabolic Activation: RAT, LIVER, S-9, AROCLOR 1254 (10% OR 30%), Method: PREINCUBATION); “inactive; negative” (Test System: AMES SALMONELLA TYPHIMURIUM, Strain/Indicator: TA98, Metabolic Activation: RAT, LIVER, S-9, AROCLOR 1254 (10 OR 30%), Method: PREINCUBATION); “inactive; negative” (Test System: AMES SALMONELLA TYPHIMURIUM, Strain/Indicator: TA98, Metabolic Activation: RAT, LIVER, S-9, PHENOBARBITAL AND BETA-NAPHTHOFLAVONE, Method: PREINCUBATION). The mutagenic call runs as follows: (Test System: AMES SALMONELLA TYPHIMURIUM, Strain/Indicator: TA100, Metabolic Activation: HAMSTER, LIVER, S-9, AROCLOR 1254 (10% OR 30%), Method: PREINCUBATION) “inactive; negative”; (Test System: AMES SALMONELLA TYPHIMURIUM, Strain/Indicator: TA100, Metabolic Activation: HAMSTER, LIVER, S-9, AROCLOR 1254 (10 OR 30%), Method: PREINCUBATION) “inactive; negative”; (Test System: AMES SALMONELLA TYPHIMURIUM, Strain/Indicator: TA100, Metabolic Activation: NONE, Method: PREINCUBATION) “inactive; negative”; (Test System: AMES SALMONELLA TYPHIMURIUM, Strain/Indicator: TA100, Metabolic Activation: RAT, LIVER, S-9, AROCLOR 1254 (10% OR 30%), Method: PREINCUBATION) “inactive; negative”; (Test System: AMES SALMONELLA TYPHIMURIUM, Strain/Indicator: TA100, Metabolic Activation: RAT, LIVER, S-9, AROCLOR 1254 (10 OR 30%), Method: PREINCUBATION) “inactive; negative”; (Test System: AMES SALMONELLA TYPHIMURIUM, Strain/Indicator: TA100, Metabolic Activation: RAT, LIVER, S-9, PHENOBARBITAL AND BETA-NAPHTHOFLAVONE, Method: PREINCUBATION) “inactive; negative”. Besides, the mutagenic call was “inactive; negative” (Test System: AMES SALMONELLA TYPHIMURIUM, Strain/Indicator: TA102, Metabolic Activation: NONE, Method: PREINCUBATION); “inactive; negative” (Test System: AMES SALMONELLA TYPHIMURIUM, Strain/Indicator: TA102, Metabolic Activation: RAT, LIVER, S-9, PHENOBARBITAL AND BETA-NAPHTHOFLAVONE, Method: PREINCUBATION); “inactive; negative” (Test System: AMES SALMONELLA TYPHIMURIUM, Strain/Indicator: TA104, Metabolic Activation: NONE, Method: PREINCUBATION); “inactive; negative” (Test System: AMES SALMONELLA TYPHIMURIUM, Strain/Indicator: TA104, Metabolic Activation: RAT, LIVER, S-9, PHENOBARBITAL AND BETA-NAPHTHOFLAVONE, Method: PREINCUBATION); “inactive; negative” (Test System: AMES SALMONELLA TYPHIMURIUM, Strain/Indicator: TA1535, Metabolic Activation: HAMSTER, LIVER, S-9, AROCLOR 1254 (10% OR 30%), Method: PREINCUBATION); “inactive; negative” (Test System: AMES SALMONELLA TYPHIMURIUM, Strain/Indicator: TA1535, Metabolic Activation: HAMSTER, LIVER, S-9, AROCLOR 1254 (10 OR 30%), Method: PREINCUBATION). Moreover, the mutagenic call (Test System: AMES SALMONELLA TYPHIMURIUM, Strain/Indicator: TA1535, Metabolic Activation: NONE, Method: PREINCUBATION) was “inactive; negative”; the mutagenic call (Test System: AMES SALMONELLA TYPHIMURIUM, Strain/Indicator: TA1535, Metabolic Activation: RAT, LIVER, S-9, AROCLOR 1254 (10% OR 30%), Method: PREINCUBATION) was “inactive; negative”; the mutagenic call (Test System: AMES SALMONELLA TYPHIMURIUM, Strain/Indicator: TA1535, Metabolic Activation: RAT, LIVER, S-9, AROCLOR 1254 (10 OR 30%), Method: PREINCUBATION) is “inactive; negative”; the mutagenic call (Test System: AMES SALMONELLA TYPHIMURIUM, Strain/Indicator: TA1535, Metabolic Activation: RAT, LIVER, S-9, PHENOBARBITAL AND BETA-NAPHTHOFLAVONE, Method: PREINCUBATION) is “inactive; negative”; the mutagenic call (Test System: AMES SALMONELLA TYPHIMURIUM, Strain/Indicator: TA1537, Metabolic Activation: NONE, Method: PREINCUBATION) was “inactive; negative”; the mutagenic call (Test System: AMES SALMONELLA TYPHIMURIUM, Strain/Indicator: TA1537, Metabolic Activation: RAT, LIVER, S-9, PHENOBARBITAL AND BETA-NAPHTHOFLAVONE, Method: PREINCUBATION) is “inactive; negative”. Further, the mutagenic call (Test System: E. COLI, Strain/Indicator: WP2UVRA/PKM101, Metabolic Activation: NONE, Method: PREINCUBATION) is “inactive; negative”; the mutagenic call (Test System: E. COLI, Strain/Indicator: WP2UVRA/PKM101, Metabolic Activation: RAT, LIVER, S-9, PHENOBARBITAL AND BETA-NAPHTHOFLAVONE, Method: PREINCUBATION) was “inactive; negative”; the mutagenic call (Test System: E. COLI, Strain/Indicator: WP2UVRA, Metabolic Activation: NONE, Method: PREINCUBATION) is “inactive; negative”; the mutagenic call (Test System: E. COLI, Strain/Indicator: WP2UVRA, Metabolic Activation: RAT, LIVER, S-9, PHENOBARBITAL AND BETA-NAPHTHOFLAVONE, Method: PREINCUBATION) was “inactive; negative”.

On to `CCCCOc1ccc2nc3cc(Cl)ccc3c(NCCCNCCCl)c2n1`, for which the mutagenic call runs as follows: (Test System: AMES SALMONELLA TYPHIMURIUM, Strain/Indicator: TA98, Metabolic Activation: NONE, Method: STANDARD PLATE) “active; positive”; under setting [1], “inactive; negative”; (Test System: AMES SALMONELLA TYPHIMURIUM, Strain/Indicator: TA1535, Metabolic Activation: NONE, Method: STANDARD PLATE) “inactive; negative”; (Test System: AMES SALMONELLA TYPHIMURIUM, Strain/Indicator: TA1536, Metabolic Activation: NONE, Method: STANDARD PLATE) “active; positive”; (Test System: AMES SALMONELLA TYPHIMURIUM, Strain/Indicator: TA1537, Metabolic Activation: NONE, Method: STANDARD PLATE) “active; positive”; (Test System: AMES SALMONELLA TYPHIMURIUM, Strain/Indicator: TA1538, Metabolic Activation: NONE, Method: STANDARD PLATE) “active; positive”.
